Among the data in BindingDB's records for doi:10.1016/j.bmc.2015.01.038 (Technical University of Denmark, 2015) are IC50 values, retold here.

One may read the IC50 as the point on the concentration scale where inhibition reaches its midpoint.

The nature of this test: Antagonist activity at lasB in Pseudomonas aeruginosa harboring lasB-gfp gene assessed as inhibition of […]-induced quorum sensing by green fluorescence protein reporter assay. Background: Reporter assays use an easily measured gene product as a stand-in for the process of interest.

As to `O=C(Cn1cc(C2CCCC2)nn1)N[C@H]1CCOC1=O`, the IC50 came out at 610 µM.

In the case of `O=C(Cn1cc(C2CC2)nn1)N[C@H]1CCOC1=O`, the IC50 was found to be 499 µM.

Turning to `[N-]=[N+]=Nc1ccc(C(=O)N[C@H]2CCOC2=O)cc1`, the IC50 was determined as 1100 µM. As to `O=C(Cn1cc(CSc2ccccc2)nn1)N[C@H]1CCOC1=O`, the IC50 came out at 692 µM. Under `O=Cc1cccc(-n2cc(CCC(=O)N[C@H]3CCOC3=O)nn2)c1` stands 381 µM. For `CCCc1cn(CC(=O)N[C@H]2CCOC2=O)nn1`, the IC50 was 678 µM. The result for `O=C(Cn1cc(C2CCCCC2)nn1)N[C@H]1CCOC1=O` reads 889 µM; that for `O=C(Cn1cc(-c2ccsc2)nn1)N[C@H]1CCOC1=O`, 582 µM; that for `CCCCCCc1cn(CC(=O)N[C@H]2CCOC2=O)nn1`, 425 µM.
